Source: ChEMBL document CHEMBL1201862, “PubChem BioAssay data set” (2004)
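Five compound concentrations were applied to cells in 96-well plates for 48 hours; endpoints were derived by simple linear interpolation of the resulting dose-response curve. GI50: concentration for 50% inhibition of growth.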 Active and inactive are the calls of the source. Cut-off read from the data, not from the text of the source: active = GI50 up to about 1.1 µM and inactive = higher.

Columns and labels:
Experiment in all cases: NCI anticancer screen, dose series, 48 h
[1] = test system: 786-0
[2] = test system: A498
[3] = test system: A549
[4] = test system: ACHN
[5] = test system: CAKI-1
[6] = test system: CCRF-CEM
[7] = test system: DU-145
[8] = test system: EKVX
[9] = test system: HCC 2998
[10] = test system: HCT-116
[11] = test system: HCT-15
[12] = test system: HL-60
[13] = test system: HOP-62
[14] = test system: HOP-92
[15] = test system: HT-29
[16] = test system: Hs-578T
[17] = test system: IGROV-1
[18] = test system: K562
[19] = test system: LOX IMVI
[20] = test system: M14
[21] = test system: MCF7
[22] = test system: MDA-MB-231
[23] = test system: MDA-MB-435
[24] = test system: MDA-N
[25] = test system: MOLT-4
[26] = test system: Malme-3M
[27] = test system: NCI-H23
[28] = test system: NCI-H460
[29] = test system: NCI-H522
[30] = test system: NCI/ADR-RES
[31] = test system: OVCAR-3
[32] = test system: OVCAR-4
[33] = test system: OVCAR-5
[34] = test system: OVCAR-8
[35] = test system: PC-3
[36] = test system: RPMI-8226
[37] = test system: RXF 393
[38] = test system: SF-268
[39] = test system: SF-295
[40] = test system: SF-539
[41] = test system: SK-MEL-28
[42] = test system: SK-MEL-2
[43] = test system: SK-MEL-5
[44] = test system: SK-OV-3
[45] = test system: SNB-19
[46] = test system: SR
[47] = test system: SW-620
[48] = test system: T47D
[49] = test system: TK-10
[50] = test system: U-251
[51] = test system: UACC-257
[52] = test system: UO-31
[53] = test system: COLO 205
[54] = test system: KM12
[55] = test system: NCI-H226
[56] = test system: SN12C
[57] = test system: SNB-75
[58] = test system: UACC-62
[59] = test system: BT-549

COC(=O)c1c2c(cc3c1CC1(Cc4cc5c(c(C)c4C1)CCC5)C3)CCC2 (stereo unspecified)
GI50 [1]: > 100 µM (inactive)
GI50 [2]: > 100 µM (inactive)
GI50 [3]: > 100 µM (inactive)
GI50 [4]: > 100 µM (inactive)
GI50 [5]: > 100 µM (inactive)
GI50 [6]: > 100 µM (inactive)
GI50 [7]: > 100 µM (inactive)
GI50 [8]: > 100 µM (inactive)
GI50 [9]: > 100 µM (inactive)
GI50 [10]: > 100 µM (inactive)
GI50 [11]: > 100 µM
GI50 [12]: > 100 µM (inactive)
GI50 [13]: > 100 µM (inactive)
GI50 [14]: > 100 µM (inactive)
GI50 [15]: > 100 µM (inactive)
GI50 [16]: > 100 µM (inactive)
GI50 [17]: > 100 µM (inactive)
GI50 [18]: > 100 µM (inactive)
GI50 [19]: > 100 µM (inactive)
GI50 [20]: > 100 µM (inactive)
GI50 [21]: > 100 µM (inactive)
GI50 [22]: > 100 µM (inactive)
GI50 [23]: > 100 µM (inactive)
GI50 [24]: > 100 µM (inactive)
GI50 [25]: > 100 µM (inactive)
GI50 [26]: > 100 µM (inactive)
GI50 [27]: > 100 µM (inactive)
GI50 [28]: > 100 µM (inactive)
GI50 [29]: > 100 µM (inactive)
GI50 [30]: > 100 µM (inactive)
GI50 [31]: > 100 µM (inactive)
GI50 [32]: > 100 µM (inactive)
GI50 [33]: > 100 µM (inactive)
GI50 [34]: > 100 µM (inactive)
GI50 [35]: > 100 µM (inactive)
GI50 [36]: > 100 µM (inactive)
GI50 [37]: 90.4 µM (inactive)
GI50 [38]: > 100 µM (inactive)
GI50 [39]: > 100 µM (inactive)
GI50 [40]: > 100 µM (inactive)
GI50 [41]: > 100 µM (inactive)
GI50 [42]: > 100 µM (inactive)
GI50 [43]: > 100 µM (inactive)
GI50 [44]: > 100 µM (inactive)
GI50 [45]: > 100 µM (inactive)
GI50 [46]: > 100 µM (inactive)
GI50 [47]: > 100 µM (inactive)
GI50 [48]: > 100 µM (inactive)
GI50 [49]: > 100 µM (inactive)
GI50 [50]: > 100 µM (inactive)
GI50 [51]: > 100 µM (inactive)
GI50 [52]: > 100 µM (inactive)

CC(C)(C)/N=c1/n(C(C)(C)C)oc(=O)n1-c1ccccc1
GI50 [1]: > 50 µM (inactive)
GI50 [2]: > 50 µM (inactive)
GI50 [3]: > 50 µM (inactive)
GI50 [4]: > 50 µM (inactive)
GI50 [5]: > 50 µM (inactive)
GI50 [6]: > 50 µM (inactive)
GI50 [53]: > 50 µM (inactive)
GI50 [7]: > 50 µM (inactive)
GI50 [8]: > 50 µM (inactive)
GI50 [10]: > 50 µM (inactive)
GI50 [11]: > 50 µM
GI50 [12]: 41.1 µM (inactive)
GI50 [13]: > 50 µM (inactive)
GI50 [14]: > 50 µM (inactive)
GI50 [15]: > 50 µM (inactive)
GI50 [16]: > 50 µM (inactive)
GI50 [17]: > 50 µM (inactive)
GI50 [18]: > 50 µM (inactive)
GI50 [54]: > 50 µM (inactive)
GI50 [19]: > 50 µM (inactive)
GI50 [20]: > 50 µM (inactive)
GI50 [21]: > 50 µM (inactive)
GI50 [22]: > 50 µM (inactive)
GI50 [23]: > 50 µM (inactive)
GI50 [24]: > 50 µM (inactive)
GI50 [25]: > 50 µM (inactive)
GI50 [26]: > 50 µM (inactive)
GI50 [55]: > 50 µM (inactive)
GI50 [27]: > 50 µM (inactive)
GI50 [28]: > 50 µM (inactive)
GI50 [29]: > 50 µM (inactive)
GI50 [30]: > 50 µM (inactive)
GI50 [31]: > 50 µM (inactive)
GI50 [32]: > 50 µM (inactive)
GI50 [33]: > 50 µM (inactive)
GI50 [34]: > 50 µM (inactive)
GI50 [35]: > 50 µM (inactive)
GI50 [36]: > 50 µM (inactive)
GI50 [37]: > 50 µM (inactive)
GI50 [38]: > 50 µM (inactive)
GI50 [39]: > 50 µM (inactive)
GI50 [40]: > 50 µM (inactive)
GI50 [41]: > 50 µM (inactive)
GI50 [42]: > 50 µM (inactive)
GI50 [43]: > 50 µM (inactive)
GI50 [44]: > 50 µM (inactive)
GI50 [56]: > 50 µM (inactive)
GI50 [45]: > 50 µM (inactive)
GI50 [57]: 35.6 µM (inactive)
GI50 [46]: > 50 µM (inactive)
GI50 [47]: > 50 µM (inactive)
GI50 [49]: > 50 µM (inactive)
GI50 [50]: > 50 µM (inactive)
GI50 [51]: > 50 µM (inactive)
GI50 [58]: > 50 µM (inactive)
GI50 [52]: > 50 µM (inactive)

Cc1ccc(C(=O)Nc2ccc(S(=O)(=O)O)c3cc(S(=O)(=O)O)cc(S(=O)(=O)O)c23)cc1NC(=S)Nc1cc(C(=O)Nc2ccc(S(=O)(=O)O)c3cc(S(=O)(=O)O)cc(S(=O)(=O)O)c23)ccc1C
GI50 [1]: > 75 µM (inactive)
GI50 [2]: > 75 µM (inactive)
GI50 [3]: > 75 µM (inactive)
GI50 [4]: > 75 µM (inactive)
GI50 [59]: > 75 µM (inactive)
GI50 [5]: > 75 µM (inactive)
GI50 [6]: > 75 µM (inactive)
GI50 [7]: > 75 µM (inactive)
GI50 [9]: > 75 µM (inactive)
GI50 [10]: > 75 µM (inactive)
GI50 [11]: > 75 µM
GI50 [12]: > 75 µM (inactive)
GI50 [13]: > 75 µM (inactive)
GI50 [15]: > 75 µM (inactive)
GI50 [17]: > 75 µM (inactive)
GI50 [18]: > 75 µM (inactive)
GI50 [19]: > 75 µM (inactive)
GI50 [20]: > 75 µM (inactive)
GI50 [21]: > 75 µM (inactive)
GI50 [22]: > 75 µM (inactive)
GI50 [23]: > 75 µM (inactive)
GI50 [24]: > 75 µM (inactive)
GI50 [25]: > 75 µM (inactive)
GI50 [26]: > 75 µM (inactive)
GI50 [55]: > 75 µM (inactive)
GI50 [27]: > 75 µM (inactive)
GI50 [28]: > 75 µM (inactive)
GI50 [29]: > 75 µM (inactive)
GI50 [31]: > 75 µM (inactive)
GI50 [32]: > 75 µM (inactive)
GI50 [33]: > 75 µM (inactive)
GI50 [34]: > 75 µM (inactive)
GI50 [35]: > 75 µM (inactive)
GI50 [36]: > 75 µM (inactive)
GI50 [38]: > 75 µM (inactive)
GI50 [41]: > 75 µM (inactive)
GI50 [42]: > 75 µM (inactive)
GI50 [43]: > 75 µM (inactive)
GI50 [56]: > 75 µM (inactive)
GI50 [45]: > 75 µM (inactive)
GI50 [57]: > 75 µM (inactive)
GI50 [46]: > 75 µM (inactive)
GI50 [47]: > 75 µM (inactive)
GI50 [49]: > 75 µM (inactive)
GI50 [50]: > 75 µM (inactive)
GI50 [51]: > 75 µM (inactive)
GI50 [58]: > 75 µM (inactive)
GI50 [52]: > 75 µM (inactive)
